One data set has as its system adjuvant arthritis. Kind of data set: Anti-adjuvant arthritis activity in rats. Type of data set: in vivo, male Lewis rats. As to the method:
(A model disease of rheumatoid arthritis) Male Lewis rats (8-9 weeks old) were used. Adjuvant arthritis was caused by the method described by B. B. Newbould in "Brit. J. Pharmacol.", 21, 127 (1963). Twenty-one days after the subcutaneous injection of a suspension of killed tubercle bacillus in Freund's adjuvant into the tail of the rats, the severity of arthritis was assayed as the hindleg volume. Each group of the rat was orally administered with the test compound once a day.

Another data set relates to peritoneal macrophages. Kind of data set: Activation of peritoneal macrophage in mice (phagocytosis of yeast). Format: cell-based, male dd mice. As to conditions: 0 μM control 33.9 ± 0.8. How it is done:
Peritoneal macrophages were obtained from male dd mice (8 weeks old). After washing macrophages, the cells were adjusted to 5×10^6 macrophages/ml in Hanks' solution. A mixture containing 100 μl of the macrophage suspension, 50 μl of mice serum and 10 μl of the test compound was preincubated at 37° C. for 10 minutes, and then 50 μl of yeast cells (2.5×10^8 /ml) was added thereto. After further incubation of the mixture at 37° C. for 20 minutes, the number of macrophages phagocytosing yeast was counted in a usual manner.

Another data set can be described thus: Acute toxicity. As to conditions: mouse, in vivo. Format: in vivo. How it is done: (§1) Acute toxicity was determined using male dd mice (8 weeks old).
The subject of a further data set is male dd mice. Kind of data set: Acute toxicity. Format: in vivo. As to conditions: p.o.; printed beside LD50 >1000 mg/kg. As to the method: as §1
For data set [1], the system named is rosette-forming cells (RFC) in the spleen and/or thymus. Kind of data set: Activity for potentiating immune response in C57BL/6 strain mice: rosette-forming cells (RFC). Type of data set: in vivo, female C57BL/6 strain mice. As to conditions: 30 mg/kg orally, 6 days after sensitization; for No. of RFC, Spleen: control 75 ± 17 (for A), 55 ± 11 (for B), **p < 0.01 vs control. As to the method: Female C57BL/6 strain mice (6 weeks old) were used dividing into groups of 6 animals. The sensitization was made by intraperitoneal injection of antigen: 5×10^8 sheep red blood cells. Each mouse was orally administered with the test compound on the same day and next day of the sensitization. Six days after the sensitization, the number of rosette-forming cells (RFC) in the spleen and/or thymus was measured in a usual manner.

Data set [2] relates to plaque-forming cells (PFC) in the spleen. Kind of data set: Activity for suppressing immune response in BALB/C strain mice: plaque-forming cells (PFC). Format: in vivo, female BALB/C strain mice. As to conditions: 30 mg/kg orally, same and next day of sensitization; 4 days after sensitization; control 17.4 ± 2.3 (for A), 9.5 ± 1.0 (for B); **p < 0.01 vs control. How it is done: (§2) Female BALB/C strain mice (6 weeks old) were used by dividing into groups of 6 animals. The sensitization was made by intraperitoneal injection of antigen: 5×10^8 sheep red blood cells. Each mouse was orally administered with the test compound on the same day and the next day of the sensitization. Four days after the sensitization, the number of plaque-forming cells (PFC) in the spleen, and the number of rosette-forming cells (RFC) in the spleen and/or thymus were measured in a usual manner.

The test system of data set [3] is rosette-forming cells (RFC) in the spleen and/or thymus. Kind of data set: Activity for suppressing immune response in BALB/C strain mice: rosette-forming cells (RFC). Type of data set: in vivo, female BALB/C strain mice. The note with it: 30 mg/kg orally, 4 days after sensitization; for No. of RFC, Spleen: control 135 ± 27 (for A), 172 ± 32 (for B), B **p < 0.01 vs control. How it is done: as §2

“Also recorded” adds a separate entry of the source. Counter-ions that a name gives are not always drawn.

The results in this text go back to patent US4465681A, “Bis-(aminoalkoxy)-phenyl, pyridyl ketones, and use as immunological agents” (Yoshitomi Pharmaceutical Industries Ltd., priority 1980, dated 1984).

By LD50 is commonly meant the dose at which mortality reaches 50%.

Take `CN(C)CCOc1ccc(C(=O)c2cccnc2OCCN(C)C)cc1` [Test compound A, 2,4'-bis(2-dimethylaminoethoxy)-3-benzoylpyridine dihydrochloride hemihydrate]: the “Volume of Hindleg” value with adjuvant arthritis (50 mg/kg orally once a day, twenty-one days after adjuvant injection, control 2.40 ± 0.20, **p < 0.01 vs control) is 1.17 ± 0.29 mL. The “anti-adjuvant arthritis activity (in words)” value with adjuvant arthritis (dose of 50 mg/kg, dihydrochloride hemihydrate, 50 mg/kg) is recorded as “significant inhibition of adjuvant arthritis; also recorded: has anti-arthritis activity”. Also, the Phagocytosis in the data set with peritoneal macrophages (10 μM) is reported as 35.5 ± 1.9%; with peritoneal macrophages (30 μM, **p < 0.01 vs control) it was 46.5 ± 2.7%; with peritoneal macrophages (100 μM, **p < 0.01 vs control), 54.3 ± 3.1%. The LD50 in the data set “Acute toxicity” (ip) was 300 mg/kg; in “Acute toxicity” (po) it was above 1000 mg/kg. In the data set with male dd mice, the dead/total animals is reported as 1/6. Further, the “No. of RFC, Thymus” value in data set [1] (control 2.8 ± 0.5, **p < 0.01 vs control) is given as 7.4 ± 1.1 × 10^4; in data set [3] (control 9.5 ± 1.0, **p < 0.01 vs control), 1.2 ± 0.4 × 10^4. For the same molecule, the “No. of RFC, Spleen” value in data set [1] is listed as 214 ± 46 × 10^4; in data set [3] it was 126 ± 24 × 10^4. The “No. of PFC, Spleen” value in data set [2] is 9.0 ± 1.4 × 10^4.
Consider `CC(CN(C)C)Oc1ccc(C(=O)c2cccnc2OC(C)CN(C)C)cc1` (stereo not shown) [Test compound B, 2,4'-bis(1-methyl-2-dimethylaminoethoxy)-3-benzoylpyridine dioxalate], for which the Phagocytosis with peritoneal macrophages (10 μM) was 40.8 ± 2.7%; in the data set with peritoneal macrophages (30 μM, **p < 0.01 vs control), 49.6 ± 2.1%; with peritoneal macrophages (100 μM, **p < 0.01 vs control), 63.4 ± 6.7%. Moreover, the median lethal dose (LD50) is 250 mg/kg in “Acute toxicity” (ip) and above 1000 mg/kg in “Acute toxicity” (po). Besides, the dead/total animals in the data set with male dd mice was 0/5. The “No. of RFC, Spleen” value is reported as 149 ± 22 × 10^4 in data set [1] and 88 ± 10 × 10^4 in data set [3]. For the same molecule, the “No. of PFC, Spleen” value in data set [2] is 4.6 ± 0.8 × 10^4.
